Experimental data reported in patent US20250339569A1, “CARBONIC ANHYDRASE IX LIGANDS” (priority 2021, published 2025).

Experiment: Allometry and prediction of human exposure and PK parameters
Conditions: allometry from mouse and dog PK
Procedure: From the variety of CL, Vd and T1/2 determined in the animal studies, the highest and lowest values for each species were retained, and allometry was conducted on all the combinations to obtain a range for each predicted human PK parameter.
The missing input parameters were dealt with as follows. Regarding blood:plasma concentration ratio, the frequent default values of 1.0 and 0.8 were considered and found to make no difference to the outputs, so it was left at 1.0. Plasma protein binding: a free fraction fup of 1 was considered in order to estimate the highest C5 min values.

SMILES: CC(C)C[C@@H]1NC(=O)[C@H](Cc2cccc(NC(=O)CCCS(N)(=O)=O)c2)NC(=O)[C@H](CC(=O)O)NC(=O)[C@H]2CCCN2C(=O)[C@H](CCC(=O)O)NC(=O)[C@@H](NC(=O)[C@H](CCC(N)=O)NC(=O)CN2CCN(C(=O)CN3CCN(CC(=O)O)CCN(CC(=O)O)CCN(CC(=O)O)CC3)CC2)CSCc2cccc(c2)CSC[C@@H](C(N)=O)NC(=O)[C@H](CO)NC(=O)[C@H](Cc2c[nH]c3ccccc23)NC(=O)[C@H]([C@@H](C)O)NC1=O [DPI-4452, DOTA-PPAc-Gln-[Cys(3MeBn)-Glu-pro-Asp-Af3(Cpsu)-Leu-Thr-Trp-Ser-Cys]-NH2]
- predicted human clearance (CL): 3.57 to 13.0 mL/min/kg
- predicted human terminal half-life (T1/2): 10.2 to 88.2 min
- predicted human volume of distribution (Vd): 0.189 to 0.455 L/kg
